Source: article PMC12446468, “Anti-inflammatory and cytotoxic assessment of flavonoids isolated from Viola odorata flowers with computer-guided docking study” (Scientific Reports, 2025)
pIC50: −log10 of the molar value. In brackets after ≈: the same amount, converted by molar mass.

How the values were obtained:
[1] = tested on: human colonic epithelial cells (Caco-2); experiment: MTT cytotoxicity assay, Caco-2; format: cell-based; conditions: Homo sapiens, Caco-2, 48 h, read-out: IC50
Protocol: (§1) The assessment of cytotoxicity for the methanolic extract and isolated flavonoids was performed under controlled and sterile conditions within a Class II A2 Laminar flow biosafety cabinet. The carcinoma cell lines used in this study was obtained from Nawah Scientific Inc. (Cairo, Egypt). The cells were cultured in Dulbecco’s Modified Eagle’s Medium, enriched with 10% heat-inactivated fetal bovine serum, 100 U/ml penicillin, and 100 μg/ml streptomycin sulfate, maintained at […] in humidified incubators with 5% CO2. Upon reaching approximately 80% confluence, the cells were subcultured using a trypsin–EDTA solution. Harvesting occurred during the logarithmic growth phase. The methanolic extract and isolated flavonoids were dissolved in DMSO and stored at − 20 °C. For each experimental trial, the stock solutions were mixed with the culture medium to obtain the required final concentrations.
(§2) The effectiveness of the extract was compared to that of the reference drug, Doxorubicin. The percentage of cell viability was calculated by taking the ratio of the absorbance of the plant extract to that of the control, multiplied by 100. Furthermore, the IC50 value of the plant extract was determined using Sigma Plot software version 11 (Spw.exe) (https://sigmaplot.software.informer.com/11.0/).

[2] = MTT cytotoxicity assay, Caco-2; format: cell-based, human; conditions: human, Caco-2 cells (human colonic epithelial cells), 48 h
Protocol: as §1, §2

[3] = tested on: hepatocellular carcinoma (HepG2); experiment: MTT cytotoxicity assay, HepG2; format: cell-based, human; conditions: Homo sapiens, HepG2, 48 h, read-out: IC50
Protocol: as §1, §2

[4] = MTT cytotoxicity assay, HepG2; format: cell-based, human; conditions: human, HepG2 cells (hepatocellular carcinoma), 48 h
Protocol: as §1, §2

COX-1 = target: T1, COX-1 (Ovis aries, UniProt P05979); experiment: COX-1 inhibition assay (Cayman COX kit); format: biochemical, ovine/human; conditions: mean ± SE, n = 3
T1 construct: purchased Cayman 560131
T1 sequence (P05979 25-600): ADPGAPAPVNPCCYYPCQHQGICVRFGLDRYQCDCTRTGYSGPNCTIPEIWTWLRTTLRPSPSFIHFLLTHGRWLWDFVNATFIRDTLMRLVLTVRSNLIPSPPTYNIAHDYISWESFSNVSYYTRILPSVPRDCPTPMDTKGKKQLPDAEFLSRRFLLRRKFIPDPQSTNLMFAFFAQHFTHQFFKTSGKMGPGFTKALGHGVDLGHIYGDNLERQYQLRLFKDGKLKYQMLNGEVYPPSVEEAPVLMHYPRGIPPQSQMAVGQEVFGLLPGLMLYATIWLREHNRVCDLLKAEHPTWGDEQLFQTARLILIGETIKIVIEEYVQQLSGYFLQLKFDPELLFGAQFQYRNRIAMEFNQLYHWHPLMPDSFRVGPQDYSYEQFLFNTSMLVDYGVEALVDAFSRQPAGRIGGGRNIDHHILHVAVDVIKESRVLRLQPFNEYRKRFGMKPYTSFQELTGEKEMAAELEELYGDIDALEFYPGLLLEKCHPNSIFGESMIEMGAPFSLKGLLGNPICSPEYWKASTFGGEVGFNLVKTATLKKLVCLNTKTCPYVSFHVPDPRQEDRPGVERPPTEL
Description: (§3) The requirements for High-Performance Liquid Chromatography (HPLC) and all compounds tested were of the utmost analytical purity. […] COX-1 and COX-2 (ovine/human), as well as the 5-LOX enzyme (human recombinant) were obtained from Sigma-Aldrich. Dulbecco’s Modified Eagle’s Medium (DMEM), along with penicillin/streptomycin and L-glutamine, were acquired from Gibco BRL, California, USA. Fetal bovine serum (FBS) and 3-(4, 5-dimethylthiazol-2-yl)-2, 5-[…] (MTT) were supplied by Sigma-Aldrich, St. Louis, Missouri, USA.
(§4) The methanolic extract of V. odorata flowers and isolated flavonoids were subjected to an in vitro anti-inflammatory assessment by inhibiting two isoenzymes, cyclooxygenase COX-1 and COX-2 (ovine/human), as well as the 5-LOX enzyme (human recombinant).

COX-2 = target: T2, COX-2 (Homo sapiens, UniProt P35354); experiment: COX-2 inhibition assay (Cayman COX kit); format: biochemical, ovine/human
T2 construct: purchased Cayman 560131
T2 sequence (P35354 18-604): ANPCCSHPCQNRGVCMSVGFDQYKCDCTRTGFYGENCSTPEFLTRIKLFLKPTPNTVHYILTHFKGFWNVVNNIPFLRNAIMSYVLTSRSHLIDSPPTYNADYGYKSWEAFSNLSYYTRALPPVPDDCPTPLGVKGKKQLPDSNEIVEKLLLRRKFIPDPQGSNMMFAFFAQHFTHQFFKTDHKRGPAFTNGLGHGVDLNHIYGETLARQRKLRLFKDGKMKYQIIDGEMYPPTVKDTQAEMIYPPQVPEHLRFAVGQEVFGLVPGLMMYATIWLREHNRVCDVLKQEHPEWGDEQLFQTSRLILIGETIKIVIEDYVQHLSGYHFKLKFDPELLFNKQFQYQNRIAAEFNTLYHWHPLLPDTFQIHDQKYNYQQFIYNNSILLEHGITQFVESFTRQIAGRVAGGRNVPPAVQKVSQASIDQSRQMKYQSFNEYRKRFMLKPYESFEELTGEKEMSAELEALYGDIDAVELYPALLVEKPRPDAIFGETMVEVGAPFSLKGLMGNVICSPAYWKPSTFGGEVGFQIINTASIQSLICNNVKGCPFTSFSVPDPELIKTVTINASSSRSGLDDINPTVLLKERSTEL
Description: as §3, §4

Structure (SMILES): COc1c(O)cc2oc(-c3ccccc3)c(OC)c(=O)c2c1O [5,7-Dihydroxy-3,6-dimethoxyflavone]
- IC50 [1]: 32.8 µg/mL (≈ 104 µM)
- cytotoxicity at 48 h, 6.25 µg/ml ([2]; Caco-2, 6.25 ug/ml): 27.8%
- viability at 48 h, 6.25 µg/ml ([2]; Caco-2, 6.25 ug/ml, read-out: % Cell viability): 72.2%
- cytotoxicity at 48 h, 12.5 µg/ml ([2]; Caco-2, 12.5 ug/ml): 37.8%
- viability at 48 h, 12.5 µg/ml ([2]; Caco-2, 12.5 ug/ml, read-out: % Cell viability): 62.2%
- cytotoxicity at 48 h, 25 µg/ml ([2]; Caco-2, 25 ug/ml): 48.9%
- viability at 48 h, 25 µg/ml ([2]; Caco-2, 25 ug/ml, read-out: % Cell viability): 51.1%
- cytotoxicity at 48 h, 50 µg/ml ([2]; Caco-2, 50 ug/ml): 66.5%
- viability at 48 h, 50 µg/ml ([2]; Caco-2, 50 ug/ml, read-out: % Cell viability): 33.5%
- cytotoxicity at 48 h, 100 µg/ml ([2]; Caco-2, 100 ug/ml): 86.7%
- viability at 48 h, 100 µg/ml ([2]; Caco-2, 100 ug/ml, read-out: % Cell viability): 13.3%
- IC50 [3]: 32 µg/mL (≈ 102 µM)
- cytotoxicity at 48 h, 6.25 µg/ml ([4]; HepG2, 6.25 ug/ml): 24.9%
- viability at 48 h, 6.25 µg/ml ([4]; HepG2, 6.25 ug/ml, read-out: % Cell viability): 75.1%
- cytotoxicity at 48 h, 12.5 µg/ml ([4]; HepG2, 12.5 ug/ml): 35.4%
- viability at 48 h, 12.5 µg/ml ([4]; HepG2, 12.5 ug/ml, read-out: % Cell viability): 64.9%
- cytotoxicity at 48 h, 25 µg/ml ([4]; HepG2, 25 ug/ml): 55.9%
- viability at 48 h, 25 µg/ml ([4]; HepG2, 25 ug/ml, read-out: % Cell viability): 44.1%
- cytotoxicity at 48 h, 50 µg/ml ([4]; HepG2, 50 ug/ml): 69.9%
- viability at 48 h, 50 µg/ml ([4]; HepG2, 50 ug/ml, read-out: % Cell viability): 30.1%
- cytotoxicity at 48 h, 100 µg/ml ([4]; HepG2, 100 ug/ml): 83.5%
- viability at 48 h, 100 µg/ml ([4]; HepG2, 100 ug/ml, read-out: % Cell viability): 16.5%
- pIC50 (COX-1): 5.41
- pIC50 (COX-2; mean ± SE, n = 3): 5.33
- Selectivity Index (COX-1/COX-2) (COX-2; ratio of IC50 COX-1 to IC50 COX-2): 0.83
